Laboratory results from paper PMC10350924, “Design, Synthesis, and Pharmacological Characterization of a Potent Soluble Epoxide Hydrolase Inhibitor for the Treatment of Acute Pancreatitis” (Journal of Medicinal Chemistry, 2023).

Tests used:
[1] = molecular target: T1, 5-LOX (Homo sapiens, UniProt P09917); assay: Cell-free 5-LOX activity assay; type: biochemical; set-up: made in house; host or cells: Escherichia coli Bl21 (DE3); conditions: human isolated 5-LOX
T1 sequence (P09917 1-674): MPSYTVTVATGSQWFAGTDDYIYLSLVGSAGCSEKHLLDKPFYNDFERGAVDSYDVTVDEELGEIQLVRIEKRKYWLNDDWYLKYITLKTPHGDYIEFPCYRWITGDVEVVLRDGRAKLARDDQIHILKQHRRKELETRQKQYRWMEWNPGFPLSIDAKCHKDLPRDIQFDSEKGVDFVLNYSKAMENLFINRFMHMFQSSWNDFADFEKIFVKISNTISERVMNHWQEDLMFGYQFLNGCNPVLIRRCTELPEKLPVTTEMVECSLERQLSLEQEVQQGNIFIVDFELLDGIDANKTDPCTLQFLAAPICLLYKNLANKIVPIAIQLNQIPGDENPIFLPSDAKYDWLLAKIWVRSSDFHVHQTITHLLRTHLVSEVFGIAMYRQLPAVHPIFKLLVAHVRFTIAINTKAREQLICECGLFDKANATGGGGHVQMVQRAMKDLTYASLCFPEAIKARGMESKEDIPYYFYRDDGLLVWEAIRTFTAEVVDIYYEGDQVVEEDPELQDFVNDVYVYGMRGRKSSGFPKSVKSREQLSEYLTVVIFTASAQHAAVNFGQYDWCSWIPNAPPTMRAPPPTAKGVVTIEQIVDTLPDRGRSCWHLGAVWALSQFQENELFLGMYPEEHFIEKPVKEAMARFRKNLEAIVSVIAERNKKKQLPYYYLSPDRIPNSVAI
Description: Human recombinant 5-LOX was expressed in Escherichia coli Bl21 (DE3) cells that were transformed with the plasmid pT3-5LO (wt 5-LOX) and purified on an adenosine triphosphate (ATP)-agarose column by affinity chromatography.[40],[41] In a first step, E. coli was lysed in 50 mM triethanolamine/HCl pH 8.0 with ethylenediamine tetraacetic acid (EDTA) (5 mM), soybean trypsin inhibitor (60 μg/mL), phenylmethanesulfonyl fluoride (1 mM), dithiothreitol (1 mM), and lysozyme (1 mg/mL) and sonicated 3 times for 15 s. The homogenate was centrifuged at 40,000g for 20 min at 4 °C. The supernatant was transferred to an ATP-agarose column (Sigma-Aldrich, Deisenhofen, Germany), which was sequentially washed with phosphate-buffered saline (PBS) pH 7.4, 1 mM EDTA, 50 mM phosphate buffer pH 7.4, 0.5 M NaCl, 1 mM EDTA, and finally 50 mM phosphate buffer pH 7.4 plus 1 mM EDTA. The enzyme was eluted with 50 mM phosphate buffer pH 7.4, 1 mM EDTA, and 20 mM ATP.
5-LOX product formation was started by the addition of 20 μM arachidonic acid (Sigma-Aldrich) and CaCl2 (2 mM) and stopped by the addition of an equal volume of ice-cold methanol containing PGB1 (200 ng) as internal standard after 10 min at 37 °C.

[2] = system: cerulein-induced acute pancreatitis; assay: Cerulein-induced acute pancreatitis in mice; type: in vivo
Description: Male CD-1 mice (33–39 g, 8 weeks, Charles River Laboratories; Calco, Italy) were fed with standard rodent chow and water and acclimated for 4 days at a 12 h light and 12 h dark schedule in a constant air-conditioned environment (21 ± 2 °C). The mice were randomly assigned to groups, and experiments were carried out during the light phase. Experimental procedures were conducted in conformity with Italian (D.L. 26/2014) and European (directive 2010/63/EU) regulations on the protection of animals used for scientific purposes and approved by the Italian Ministry. Acute pancreatitis (AP) was induced in mice by intraperitoneal (i.p.) injections of cerulein (50 μg/kg) hourly (5 times).[56] The groups were: (a) Sham group which received saline i.p. hourly (×5); […] The mice were killed 6 h after the first cerulein injection. Blood samples were obtained by direct intracardiac puncture. Pancreases and lungs were removed immediately, frozen, and stored at −80 °C until assayed. Portions of these organs were also fixed in formaldehyde for histological and immunohistochemical examination. Pancreas and lung sections (6 μm) were stained for hematoxylin & eosin (H&E). Evaluation of pancreas edema and inflammation signs were performed with a three-point scoring system. […] Analysis was performed in a blinded manner. Evaluation of lung edema and inflammatory infiltration was performed with three-point scoring system: 0, absent; 1, mild; 2, moderate; 3, severe. […] Tissue sections were then incubated with normal goat serum (Vector Laboratories, Newark, California) for 20 min to reduce nonspecific antibody interactions. Sections were incubated with primary antibody diluted in 0.01 M PBS, 2.5% normal serum (anti-Neutrophils rat monoclonal antibody, dilution 1:100, Abcam) for 30 min. After rinsing with PBS 0.01 M for 5 min, slides were incubated with biotinylated goat anti-rat IgG (Vector Laboratories, Newark, California), diluted 1:200, for 30 min. After rinsing with PBS 0.01 M for 5 min, slides were incubated with VECTASTAIN ABC Reagent (Vector Laboratories, Newark, California) for 30 min. Color development was performed using […] 3,3′-diaminobenzidine solution (Sigma-Aldrich, Milan, Italy), and sections were analyzed using Leica Microsystem with a magnification of 20x. Semiquantitative determination of protein expression was obtained with ImageJ/Fiji software. Liver injury was assessed by measuring the rise in plasma levels of alanine aminotransferase (ALT, a specific marker for hepatic parenchymal injury) and aspartate aminotransferase (AST, a nonspecific marker for hepatic injury) 6 h after cerulein injection by a clinical laboratory. Results are expressed in international units per milliliter.

[3] = 10 mg/kg i.p. 0.5 and 2.5 h after first cerulein injection, 6 h
[4] = 10 mg/kg i.p., 6 h after first cerulein injection

Structure (SMILES)	IC50 [1] [nM]	lung inflammation and neutrophilia [2, 3]	pancreatic injury (edema, cell infiltration, neutrophil numbers) [2, 3]	serum ALT levels [2, 4]	serum AST levels [2, 4]
O=C(Nc1ccc2c(c1)CCN2Cc1ccc(F)cc1)NC12C[C@H]3C[C@@H](C1)C[C@@H](C2)C3 [Compound 6, 1-((3S,5S,7S)-Adamantan-1-yl)-3-(1-(4-fluorobenzyl)indolin-5-yl)urea]	71 ± 16	–	–	–	–
O=C(NCC12C[C@H]3C[C@@H](C1)C[C@@H](C2)C3)Nc1ccc2c(ccn2Cc2ccc(F)cc2)c1 [Compound 27, 1-(((3R,5R,7R)-Adamantan-1-yl)methyl)-3-(1-(4-fluorobenzyl)-1H-indol-5-yl)urea]	> 1000	–	–	–	–
CC(C)c1ccc(Cn2ccc3cc(NC(=O)NCC45C[C@H]6C[C@@H](C4)C[C@@H](C5)C6)ccc32)cc1 [Compound 28, 1-(((3R,5R,7R)-Adamantan-1-yl)methyl)-3-(1-(4-isopropylbenzyl)-1H-indol-5-yl)urea]	> 1000	reduced	protective effect	decreased	decreased
O=C(NCC12C[C@H]3C[C@@H](C1)C[C@@H](C2)C3)Nc1ccc2c(ccn2CCc2ccc(F)cc2)c1 [Compound 30, 1-(((3R,5R,7R)-Adamantan-1-yl)methyl)-3-(1-(4-fluorophenethyl)-1H-indol-5-yl)urea]	> 1000	–	–	–	–
O=C(NCC12C[C@H]3C[C@@H](C1)C[C@@H](C2)C3)Nc1ccc2c(ccn2C(=O)c2ccc(F)cc2)c1 [Compound 36, 1-(((3R,5R,7R)-Adamantan-1-yl)methyl)-3-(1-(4-fluorobenzoyl)-1H-indol-5-yl)urea]	> 1000	–	–	–	–
